Measurements from paper PMC3570588 (ChemMedChem, 2012).
Converted amounts (≈) assume the structure as drawn.

How the values were obtained:
B. anthracis Sterne = assay type: cell-based, Bacillus anthracis
S. aureus 29213 = assay type: cell-based, Staphylococcus aureus
B. anthracis DHFR = B. anthracis DHFR (Bacillus anthracis, UniProt Q81R22); assay type: biochemical; conditions: read-out: Ki, nM (SEM) B. anthracis Sterne; pH 7.0, 30 °C
S. aureus DHFR = S. aureus DHFR (Staphylococcus aureus, UniProt P0A017); assay type: biochemical; conditions: read-out: Ki, nM (SEM) S. aureus 29213; pH 7.0, 30 °C
Sequence of S. aureus DHFR (P0A017 whole entry): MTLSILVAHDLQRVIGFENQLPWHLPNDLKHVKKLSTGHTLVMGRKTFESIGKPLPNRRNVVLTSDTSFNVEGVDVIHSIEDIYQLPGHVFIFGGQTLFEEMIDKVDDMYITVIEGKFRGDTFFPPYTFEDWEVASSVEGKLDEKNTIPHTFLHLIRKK

Sequence of B. anthracis DHFR (Q81R22 1-162): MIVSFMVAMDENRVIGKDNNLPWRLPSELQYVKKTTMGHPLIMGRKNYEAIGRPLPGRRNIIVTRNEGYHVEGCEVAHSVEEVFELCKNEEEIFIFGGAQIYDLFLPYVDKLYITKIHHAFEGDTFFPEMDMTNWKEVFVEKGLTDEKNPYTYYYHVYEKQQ

SMILES	MIC, μg/mL B. anthracis Sterne (B. anthracis Sterne) [µg/mL]	MIC, μg/mL S. aureus 29213 (S. aureus 29213) [µg/mL]	Ki (B. anthracis DHFR) [nM]	Ki (S. aureus DHFR) [nM]
CCCC1c2ccccc2C=NN1C(=O)/C=C/c1cc(Cc2c(C)nc(N)nc2N)cc(OC)c1OC (racemic) [Compound 11a, (±)-(E)-3-{5-[(2,4-Diamino-6-methyl-5-pyrimidinyl)methyl]-2,3-dimethoxyphenyl}-1-(1-propyl-2(1H)-phthalazinyl)-2-propen-1-one]	8 (≈ 16 µM)	0.5 (≈ 0.999 µM)	72.4	4.5
CCCC1c2ccccc2C=NN1C(=O)/C=C/c1cc(Cc2c(N)nc(N)nc2CC)cc(OC)c1OC (racemic) [Compound 11b, (±)-(E)-3-5-[(2,4-Diamino-6-ethyl-5-pyrimidinyl)methyl]-2,3-dimethoxyphenyl}-1-(1-propyl-2(1H)-phthalazinyl)-2-propen-1-one]	4 (≈ 7.77 µM)	0.5 to 2	–	3.6
CCCc1nc(N)nc(N)c1Cc1cc(/C=C/C(=O)N2N=Cc3ccccc3C2CCC)c(OC)c(OC)c1 (racemic) [Compound 11c, (±)-(E)-3-5-[(2,4-Diamino-6-propyl-5-pyrimidinyl)methyl]-2,3-dimethoxyphenyl}-1-(1-propyl-2(1H)-phthalazinyl)-2-propen-1-one]	1 (≈ 1.89 µM)	1 to 2	–	4
COc1cc(Cc2c(C)nc(N)nc2N)cc(/C=C/C(=O)N2N=Cc3ccccc3C2C=C(C)C)c1OC (racemic) [Compound 12a, (±)-(E)-3-{5-[(2,4-Diamino-6-methyl-5-pyrimidinyl)methyl]-2,3-dimethoxyphenyl}-1-(1-isobutenyl-2(1H)-phthalazinyl)-2-propen-1-one]	4 (≈ 7.8 µM)	0.25 to 0.5	14.3	3.4
CCc1nc(N)nc(N)c1Cc1cc(/C=C/C(=O)N2N=Cc3ccccc3C2C=C(C)C)c(OC)c(OC)c1 (racemic) [Compound 12b, (±)-(E)-3-{5-[(2,4-Diamino-6-ethyl-5-pyrimidinyl)methyl]-2,3-dimethoxyphenyl}-1-(1-isobutenyl-2(1H)-phthalazinyl)-2-propen-1-one]	4 (≈ 7.6 µM)	0.25 to 0.5	25.4	2.9
CCCc1nc(N)nc(N)c1Cc1cc(/C=C/C(=O)N2N=Cc3ccccc3C2C=C(C)C)c(OC)c(OC)c1 (racemic) [Compound 12c, (±)-(E)-3-{5-[(2,4-Diamino-6-propyl-5-pyrimidinyl)methyl]-2,3-dimethoxyphenyl}-1-(1-isobutenyl-2(1H)-phthalazinyl)-2-propen-1-one]	2 (≈ 3.7 µM)	2 (≈ 3.7 µM)	–	4.1
